Experimental data reported in paper PMC10927086, “Effects of structurally distinct human HDAC6 and HDAC6/HDAC8 inhibitors against S. mansoni larval and adult worm stages” (PLOS Neglected Tropical Diseases, 2024).
Where “and” joins values, the source holds several entries; their conditions need not be identical. Equal values may be shown once. Read-outs that look alike come from different tables or passages of the source.

How the values were obtained:
[1] = tested on: tubulin of S. mansoni adult worm pairs; assay: Western blot, tubulin acetylation in adult worm pairs; assay type: cell-based, Schistosoma mansoni; settings: 48 h and 72 h, partially lethal and sub-lethal doses
Description: (§1) Ten adult pairs were treated with selected HDAC inhibitors for 48 h or 72 h at partially lethal and sublethal concentrations. Compound concentrations were selected based on the viability curve, Trichostatin A (TSA), a pan-HDAC inhibitor, and NF2503 a SmHDAC8 inhibitor chemically characterized by the presence of a hydroxamate-based MBG (metal binding group) coupled to a tricyclic thieno[3,2-b]indole core as capping group, previously described were used as positive controls in the experiments; DMSO (vehicle) was the negative control. Parasites were processed as previously described and samples were analyzed by 15% SDS-PAGE, and immunoblotting was performed using α-tubulin DM1A (1:5000), α-acetylated-lysine (1:4000) and α-acetylated tubulin (1:3000) antibodies. A Chemidoc XRS Bio-Rad with a chemiluminescent camera and Bio-Rad ImageLab 4.0 software were used for the acquisition and analysis of images. Each Western blot analysis was calibrated by Ponceau staining.
(§2) TSA, a known pan- class I and class II HDAC -inhibitor, and NF2503, a HDAC inhibitor previously shown to impact histone acetylation in adult worm pairs were used as positive controls.
(§3) Fig 6 Effects of selected compounds on histones and tubulin acetylation. […]

hHDAC8 = settings: recombinant enzyme, previously reported; ref [25]; cited from earlier work
[2] = tested on: histone proteins of S. mansoni adult worm pairs; assay: Western blot, histone acetylation (anti-acetylated lysine) in adult worm pairs; assay type: cell-based, Schistosoma mansoni; settings: 48 h and 72 h, partially lethal and sub-lethal doses
Description: as §1, §2, §3

[3] = tested on: adult S. mansoni worm pairs; assay: Viability assay on adult worm pairs (phenotype scoring 0-3); assay type: cell-based, Schistosoma mansoni; settings: for viability at 20 µM / viability at 50 µM: Schistosoma mansoni
Description: For studies on adult worm pairs, mice infected 7–8 weeks previously with double sex cercariae were euthanized with intraperitoneal injections of Tiletamine/Zolazepam ([…]) + Xylazine (100 mg/kg) and adult parasites were harvested by reversed perfusion of the hepatic portal system and mesenteric veins. Adult worms were cultured in DMEM containing phenol red and with 4500 mg/l glucose, 2 mM L-glutamine, 100 U/ml penicillin, 100 μg/ml streptomycin, 1x antibiotic-antimycotic reagent, and 10% heat inactivated FBS. Viability assays on adult worm pairs were based on a phenotyping scoring assessment as previously described. Briefly, five adult pairs were incubated with selected compounds in 3 ml of DMEM complete medium. For each compound, three experiments were performed, and compounds were given to parasites only once without medium addition and/or replacement. DMSO (vehicle)-treated worms were used as control samples. Viability was monitored under a Leica Model MZ12 stereomicroscope for 7 days and viability scores (0–3) were assigned. […] For each sample, the total score was determined by the ratio of the sum of worm scores for the total number of worms.
Fig 3 Schistosome viability assays. Panel A: Representative dose-response curves of the inhibitors on NTS. The y-axis indicates the percentage of viability normalized against DMSO (100%) and gambogic acid 10 μM (0%). […] Panel B: dose-response curve of the inhibitors on adult schistosome worm pairs. DMSO (vehicle) was used as negative control (100% viability), the indicated compounds were assayed at 5 (full triangle) 10 (inverted full triangle), 20 (full square) and 50 μM (full circle). Data are expressed as a % severity score (viability) relative to DMSO. Each point represents the average ± standard deviation of three independent experiments.
Parasites were treated initially at 20 μM and 50 μM; their impact on viability was monitored for 7 days upon treatment. […] Viability of each schistosome was scored from 3 (no effect) to 0 (severe effects) by assigning daily worm phenotype scores (plate attachment, movement, color, gut peristalsis, tegument damage) as previously described (Fig 3B).

[4] = MTT cytotoxicity assay on L929 fibroblasts; assay type: cell-based, murine; settings: mouse, L929 (NCTC clone 929) fibroblast cells, compounds 100-0.78 μM, GA 10-0.078 μM, 2 independent experiments
Description: The NCTC clone 929 (L-929) murine fibroblast isolated from subcutaneous connective tissue (ATCC-CCL-1) were cultured in Dulbecco’s Modified Eagle Medium (DMEM) supplemented with 10 mM Hepes (pH 6.98–7.30), 1 mM l-glutamine, 100 U/ml of penicillin/streptomycin (BioWhittaker, Lonza, EuroClone SpA), and heat-inactivated 10% FBS. All cells were cultured at 37°C in a 5% CO2 humidified incubator.
The MTT method was employed as previously described to determine the viability of fibroblast cell lines. Briefly, cells seeded into 96-well plates at a density of 20,000 cells/well after overnight incubation, were exposed to selected compounds at the indicated concentrations for 24–72 h. Next they were gently washed, incubated with MTT (bromuro di 3-(4,5-dimetiltiazol-2-il)-2,5-diphenyltetrazolium) for 4 h, and processed for color detection with DMSO. The resulting purple solution was spectrophotometrically measured at 570 nm using a Varioskan Lux instrument and Skanit software (Thermo Fisher Scientific).
The optical density values for both assays were expressed as a percentage of cell survival and normalized with the value of cells treated with vehicle (DMSO), and the data were analyzed using GraphPad Prism v9.5.1 software (San Diego, CA, USA).
The cytotoxicity of the hit compounds was assessed in two independent experiments on murine L929 and human BJ fibroblasts at 24 h by MTT assays. Vehicle (DMSO) and Gambogic acid (GA) were used as negative and positive control respectively. The compounds show a safe profile on both cell lines (S2 Table).
The IC50(μM) shown was calculated by dose-response curves of the compounds on murine L929 and human BJ fibroblast cells. […] The data are representative of 2 independent experiments. Gambogic acid (GA) and vehicle (DMSO) were used as positive and negative controls respectively. (DOCX)

MDCK cell = tested on: MDCK cell; set-up: method as in earlier work; settings: QikProp; >500 great; ref [25]; cited from earlier work
HERG K+ channels = tested on: HERG K+ channels; set-up: method as in earlier work; settings: QikProp, log value; recommended below -5; ref [25]; cited from earlier work
hHDAC1 = settings: recombinant enzyme, previously reported; ref [25]; cited from earlier work
[5] = 24 h, 20 µM, day 1, read-out: % viability of adult worm pairs relative to DMSO, Mean
[6] = 24 h, 20 µM, day 1, read-out: % viability of adult worm pairs relative to DMSO, single experiments
[7] = 24 h, 50 µM, day 1, read-out: % viability of adult worm pairs relative to DMSO, Mean
[8] = 72 h, 20 µM, day 3, read-out: % viability of adult worm pairs relative to DMSO, Mean
[9] = 72 h, 20 µM, day 3, read-out: % viability of adult worm pairs relative to DMSO, single experiments
[10] = 72 h, 50 µM, day 3, read-out: % viability of adult worm pairs relative to DMSO, Mean
[11] = 120 h, 20 µM, day 5, read-out: % viability of adult worm pairs relative to DMSO, Mean
[12] = 120 h, 20 µM, day 5, read-out: % viability of adult worm pairs relative to DMSO, single experiments
[13] = 120 h, 50 µM, day 5, read-out: % viability of adult worm pairs relative to DMSO, Mean
[14] = 168 h, 20 µM, day 7, read-out: % viability of adult worm pairs relative to DMSO, Mean
[15] = 168 h, 20 µM, day 7, read-out: % viability of adult worm pairs relative to DMSO, single experiments
[16] = 168 h, 50 µM, day 7, read-out: % viability of adult worm pairs relative to DMSO, Mean

| SMILES | tubulin acetylation vs vehicle (DMSO) [1] | IC50 (hHDAC8) | histone acetylation vs vehicle (DMSO) [2] | % viability of adult worm pairs relative to DMSO, single experiments ([3]; 20 µM, day 1, 20 µM) | % viability of adult worm pairs relative to DMSO, single experiments ([3]; 20 µM, day 3, 20 µM) | % viability of adult worm pairs relative to DMSO, single experiments ([3]; 20 µM, day 5, 20 µM) | % viability of adult worm pairs relative to DMSO, single experiments ([3]; 20 µM, day 7, 20 µM) | % viability of adult worm pairs relative to DMSO, single experiments ([3]; 50 µM, day 3, 50 µM) | viability at 20 µM [3, 5] | viability at 20 µM [3, 6] | viability at 50 µM [3, 7] | viability at 20 µM [3, 8] | viability at 20 µM [3, 9] | viability at 50 µM [3, 10] | viability at 20 µM [3, 11] | viability at 20 µM [3, 12] | viability at 50 µM [3, 13] | viability at 20 µM [3, 14] | viability at 20 µM [3, 15] | viability at 50 µM [3, 16] | other results |
| --- | --- | --- | --- | --- | --- | --- | --- | --- | --- | --- | --- | --- | --- | --- | --- | --- | --- | --- | --- | --- | --- |
| CCN(CC)Cc1ccc(Cn2c(=O)c(OCc3ccc(C(=O)NO)cc3)c(-c3cccnc3)c3ccccc32)cc1 [NF2838] | increased acetylation | 500 ± 200 nM | more strongly impact histone acetylation | 93.3% and 96% | 86.6% and 96% | 90% and 100% | 85% and 100% | 67% and 70% | 96.4% | 100% | 67.5% | 94.2% | 100% | 58.5% | 96.7% | 100% | 50% | 95% | 100% | 58.5% | % viability of adult worm pairs relative to DMSO, single experiments ([3]; 50 µM, day 1, 50 µM): 62% and 73%; % viability of adult worm pairs relative to DMSO, single experiments ([3]; 50 µM, day 7, 50 µM): 67%; viability at 50 µM ([3]; 72 h, 50 µM, day 3, read-out: % viability of adult worm pairs relative to DMSO, single experiments): 50%; viability at 50 µM ([3]; 168 h, 50 µM, day 7, read-out: % viability of adult worm pairs relative to DMSO, single experiments): 50%; IC50 at 24 h [4]: 64000 to 100000 nM; QPPMDCK predicted apparent MDCK cell permeability (MDCK cell): 2.431 ×10⁻⁶ cm/s; QPlogHERG predicted IC50 values for blockage of HERG K+ channels (HERG K+ channels): -7.83; IC50 (hHDAC1): 300 ± 100 nM |
| Cn1c(=O)c(OCc2ccc(C(=O)NO)cc2)c(C2CCCCC2)c2ccccc21 [NF2836] | highest increase in tubulin acetylation | 1600 ± 300 nM | only slightly impacts histone acetylation | 100% | 100% and 96% | 100% and 96% | 100% | 80% and 60% and 92.59% and 77% | 94.3% | 83% | 62.1% | 98.7% | 100% | 77.4% | 98.7% | 100% | 53.9% | 94.3% | 100% | 53.2% | % viability of adult worm pairs relative to DMSO, single experiments ([3]; 50 µM, day 5, 50 µM): 63% and 43% and 42.59% and 67%; IC50 at 24 h [4]: > 100000 nM; QPPMDCK predicted apparent MDCK cell permeability (MDCK cell): 11.753 ×10⁻⁶ cm/s; QPlogHERG predicted IC50 values for blockage of HERG K+ channels (HERG K+ channels): -5.45; IC50 (hHDAC1): 3000 ± 200 nM |
